Target: T1, RhsF-CT (Chromobacterium violaceum, UniProt Q7NY44)
T1 construct: gene CV_1431; C-terminal toxin domain, residues 1393-1513, 14 kDa; His6-TEV tag, apparently kept
Assay type: biochemical

## NC(=O)c1ccc[n+]([C@@H]2O[C@H](COP(=O)(O)OP(=O)(O)OC[C@H]3O[C@@H](n4cnc5c(N)ncnc54)[C@H](O)[C@@H]3O)[C@@H](O)[C@H]2O)c1 [NAD^+]
  RNA ADP-ribosylation, TBE-urea gel and anti-ADP-ribose immunoblot: indicating that RhsF-CT can transfer ADP-ribose from NAD^+ to the RNA
